Test results from patent US20240158370A1, “CK1 alpha AND DUAL CK1 alpha / GSPT1 DEGRADING COMPOUNDS” (Innovo Therapeutics, Inc., priority 2022, published 2024).

Experiments:
[1] = molecular target: T1, CK1α (Homo sapiens, UniProt P48729+Q96SW2); assay: HiBiT degradation assay, CK1α, Procedure A; type: cell-based; conditions: six hours
T1 construct: CSNK1A1-HiBit KI HEK293(LgBit) Cells; host or cells: HEK293(LgBit) knock-in cells
Procedure, shortened: (§1)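 DC50 and Ymin (% remaining) were derived by four-parameter fitting of luminescence data. The data come from a six-hour, 37° C compound exposure of cells in DMEM/10% FBS over a ten-point range, 10 μM to 0.005 μM, followed by Nano-Glo HiBiT lytic detection.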

[2] = molecular target: GSPT1 (Homo sapiens, UniProt P15170+Q96SW2); assay: HiBiT degradation assay, GSPT1, Procedure A; type: cell-based; parameters: HiBit-GSPT1 KI HEK293(LgBit) Cells; host or cells: HEK293(LgBit) knock-in cells; conditions: six hours
GSPT1, sequence (P15170 whole entry): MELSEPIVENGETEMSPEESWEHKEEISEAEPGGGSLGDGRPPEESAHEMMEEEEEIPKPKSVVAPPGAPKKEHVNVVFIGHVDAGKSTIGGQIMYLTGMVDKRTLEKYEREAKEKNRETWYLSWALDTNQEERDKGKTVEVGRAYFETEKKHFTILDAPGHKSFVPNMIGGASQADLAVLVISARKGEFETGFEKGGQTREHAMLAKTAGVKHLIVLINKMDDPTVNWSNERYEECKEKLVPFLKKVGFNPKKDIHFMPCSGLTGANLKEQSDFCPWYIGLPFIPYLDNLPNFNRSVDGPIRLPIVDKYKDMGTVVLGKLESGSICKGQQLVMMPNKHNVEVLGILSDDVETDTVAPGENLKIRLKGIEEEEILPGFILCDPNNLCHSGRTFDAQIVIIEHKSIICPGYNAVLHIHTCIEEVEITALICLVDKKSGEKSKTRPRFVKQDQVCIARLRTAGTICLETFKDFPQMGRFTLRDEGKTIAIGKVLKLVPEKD
GSPT1, sequence (Q96SW2 whole entry): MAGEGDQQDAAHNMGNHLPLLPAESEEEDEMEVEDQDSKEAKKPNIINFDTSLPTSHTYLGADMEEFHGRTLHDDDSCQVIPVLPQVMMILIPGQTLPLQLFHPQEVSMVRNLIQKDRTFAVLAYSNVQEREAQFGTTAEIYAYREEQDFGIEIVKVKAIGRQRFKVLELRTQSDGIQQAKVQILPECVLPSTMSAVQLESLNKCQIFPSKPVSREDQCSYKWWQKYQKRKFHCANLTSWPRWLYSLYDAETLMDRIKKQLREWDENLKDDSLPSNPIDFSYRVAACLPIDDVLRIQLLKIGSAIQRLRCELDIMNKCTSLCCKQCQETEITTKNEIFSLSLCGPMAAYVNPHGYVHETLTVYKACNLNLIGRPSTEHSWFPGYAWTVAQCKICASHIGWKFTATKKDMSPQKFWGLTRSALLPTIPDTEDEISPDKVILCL
GSPT1, sequence (Q16531 whole entry partner): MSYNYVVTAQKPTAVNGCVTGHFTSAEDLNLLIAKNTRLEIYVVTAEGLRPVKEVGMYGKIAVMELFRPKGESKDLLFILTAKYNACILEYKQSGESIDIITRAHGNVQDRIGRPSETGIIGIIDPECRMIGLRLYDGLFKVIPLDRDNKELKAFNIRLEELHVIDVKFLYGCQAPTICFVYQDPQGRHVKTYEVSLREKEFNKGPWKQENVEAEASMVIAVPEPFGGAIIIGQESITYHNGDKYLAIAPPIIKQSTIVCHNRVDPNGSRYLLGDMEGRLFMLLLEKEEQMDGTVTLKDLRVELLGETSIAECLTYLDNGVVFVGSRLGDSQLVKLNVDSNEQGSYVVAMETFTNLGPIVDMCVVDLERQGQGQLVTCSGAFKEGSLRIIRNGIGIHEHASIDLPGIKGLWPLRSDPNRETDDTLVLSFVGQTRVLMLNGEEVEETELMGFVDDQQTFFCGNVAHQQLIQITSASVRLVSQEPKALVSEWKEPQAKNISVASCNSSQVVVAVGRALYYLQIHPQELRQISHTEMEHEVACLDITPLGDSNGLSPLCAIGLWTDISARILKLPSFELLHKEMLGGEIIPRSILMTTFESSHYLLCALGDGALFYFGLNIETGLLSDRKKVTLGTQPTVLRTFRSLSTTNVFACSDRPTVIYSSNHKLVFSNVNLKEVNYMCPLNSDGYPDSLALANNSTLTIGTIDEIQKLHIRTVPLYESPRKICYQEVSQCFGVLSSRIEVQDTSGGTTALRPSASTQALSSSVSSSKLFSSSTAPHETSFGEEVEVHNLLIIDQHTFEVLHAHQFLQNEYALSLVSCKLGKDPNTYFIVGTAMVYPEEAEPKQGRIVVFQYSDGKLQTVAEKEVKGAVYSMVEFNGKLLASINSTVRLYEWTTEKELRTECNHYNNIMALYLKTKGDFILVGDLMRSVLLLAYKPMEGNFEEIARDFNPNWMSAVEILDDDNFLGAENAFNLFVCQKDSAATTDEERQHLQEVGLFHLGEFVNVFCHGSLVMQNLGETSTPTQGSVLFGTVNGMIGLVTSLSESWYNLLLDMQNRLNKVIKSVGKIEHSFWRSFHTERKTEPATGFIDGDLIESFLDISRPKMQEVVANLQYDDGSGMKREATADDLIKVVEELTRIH
Procedure, shortened: as §1

T1 sequence (P48729 whole entry): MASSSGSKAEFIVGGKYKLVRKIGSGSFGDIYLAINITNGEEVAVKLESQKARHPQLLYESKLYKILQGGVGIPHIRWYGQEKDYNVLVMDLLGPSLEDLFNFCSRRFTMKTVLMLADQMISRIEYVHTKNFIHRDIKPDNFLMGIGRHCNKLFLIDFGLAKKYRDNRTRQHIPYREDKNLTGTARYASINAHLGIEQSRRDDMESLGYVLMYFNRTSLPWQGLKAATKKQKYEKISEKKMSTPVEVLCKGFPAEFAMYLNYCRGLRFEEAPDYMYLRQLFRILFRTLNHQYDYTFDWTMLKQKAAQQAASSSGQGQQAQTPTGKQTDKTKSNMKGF
T1 sequence (Q96SW2 whole entry): as the sequence (Q96SW2 whole entry) above
T1 sequence (Q16531 whole entry partner): as the sequence (Q16531 whole entry partner) above

SMILES | CK1α Ymin [1] | DC50 [1] [nM] | DC50 [2] [nM] | GSPT1 Ymin [2]
COc1ccc(-c2c(-c3ccc4c(c3)CN(C3CCC(=O)NC3=O)C4=O)cnn2C)cn1 (stereo not drawn) [Example 378] | E (E = >25-75% remaining) | < 25 | ≥ 25 | F (F = >75-100% remaining)
Cn1ncc(-c2ccc3c(c2)CN(C2CCC(=O)NC2=O)C3=O)c1-c1cc2ccccc2[nH]1 (stereo not drawn) [Example 380] | E (E = >25-75% remaining) | < 25 | ≥ 25 | F (F = >75-100% remaining)
Cn1ncc(-c2ccc3c(c2)CN(C2CCC(=O)NC2=O)C3=O)c1-c1ccc2nccn2c1 (stereo not drawn) [Example 382] | D (D = >10- 25% remaining) | ≥ 25 | ≥ 25 | F (F = >75-100% remaining)
Cn1ncc(-c2ccc3c(c2)CN(C2CCC(=O)NC2=O)C3=O)c1-c1cnn2ccccc12 (stereo not drawn) [Example 383] | E (E = >25-75% remaining) | < 25 | ≥ 25 | F (F = >75-100% remaining)
CC(C)Cn1cc(-c2c(-c3ccc4c(c3)CN(C3CCC(=O)NC3=O)C4=O)cnn2C)cn1 (stereo not drawn) [Example 384] | E (E = >25-75% remaining) | ≥ 25 | < 25 | F (F = >75-100% remaining)
Cn1ncc(-c2ccc3c(c2)CN(C2CCC(=O)NC2=O)C3=O)c1-c1ccc2cccnc2c1 (stereo not drawn) [Example 385] | E (E = >25-75% remaining) | < 25 | ≥ 25 | F (F = >75-100% remaining)
Cn1ncc(-c2ccc3c(c2)CN(C2CCC(=O)NC2=O)C3=O)c1-c1cnn(CC(F)F)c1 (stereo not drawn) [Example 388] | E (E = >25-75% remaining) | ≥ 25 | ≥ 25 | F (F = >75-100% remaining)
Cn1ncc(-c2ccc3c(c2)CN(C2CCC(=O)NC2=O)C3=O)c1-c1cnc2c(ccn2C)c1 (stereo not drawn) [Example 390] | F (F = >75-100% remaining) | < 25 | ≥ 25 | F (F = >75-100% remaining)
Cn1ncc(-c2ccc3c(c2)CN(C2CCC(=O)NC2=O)C3=O)c1-c1cnn(-c2ccccc2)c1 (stereo not drawn) [Example 395] | F (F = >75-100% remaining) | < 25 | < 25 | E (E = >25-75% remaining)
Cn1ncc(-c2ccc3c(c2)CN(C2CCC(=O)NC2=O)C3=O)c1-c1ccn(-c2ccc(F)cc2)n1 (stereo not drawn) [Example 396] | E (E = >25-75% remaining) | < 25 | ≥ 25 | F (F = >75-100% remaining)
Cc1ccc(-c2c(-c3ccc4c(c3)CN(C3CCC(=O)NC3=O)C4=O)ncn2C)cn1 (stereo not drawn) [Example 397] | D (D = >10- 25% remaining) | ≥ 25 | ≥ 25 | F (F = >75-100% remaining)
Cc1cc(-c2c(-c3ccc4c(c3)CN(C3CCC(=O)NC3=O)C4=O)ncn2C)ccn1 (stereo not drawn) [Example 398] | D (D = >10- 25% remaining) | < 25 | < 25 | F (F = >75-100% remaining)
Cn1cnc(-c2ccc3c(c2)CN(C2CCC(=O)NC2=O)C3=O)c1-c1ccc(=O)n(C)c1 (stereo not drawn) [Example 400] | D (D = >10- 25% remaining) | ≥ 25 | ≥ 25 | F (F = >75-100% remaining)
Cn1cnc(-c2ccc3c(c2)CN(C2CCC(=O)NC2=O)C3=O)c1-c1ccc2scnc2c1 (stereo not drawn) [Example 402] | E (E = >25-75% remaining) | < 25 | ≥ 25 | F (F = >75-100% remaining)
Cn1cnc(-c2ccc3c(c2)CN(C2CCC(=O)NC2=O)C3=O)c1-c1ccc(N2CCCCC2)nc1 (stereo not drawn) [Example 403] | D (D = >10- 25% remaining) | < 25 | ≥ 25 | F (F = >75-100% remaining)
Cn1cnc(-c2ccc3c(c2)CN(C2CCC(=O)NC2=O)C3=O)c1-c1cncc(OCc2ccccc2)c1 (stereo not drawn) [Example 405] | F (F = >75-100% remaining) | < 25 | < 25 | F (F = >75-100% remaining)
Cn1cnc(-c2ccc3c(c2)CN(C2CCC(=O)NC2=O)C3=O)c1-c1cnn(Cc2ccccc2)c1 (stereo not drawn) [Example 406] | D (D = >10- 25% remaining) | ≥ 25 | < 25 | E (E = >25-75% remaining)
Cc1c(-c2c(-c3ccc4c(c3)CN(C3CCC(=O)NC3=O)C4=O)ncn2C)cnn1-c1ccccc1 (stereo not drawn) [Example 407] | C (C = 0-10% remaining) | < 25 | ≥ 25 | E (E = >25-75% remaining)
Cn1ncc(-c2ccc3c(c2)CN(C2CCC(=O)NC2=O)C3=O)c1-c1cccc(N2CCNCC2)c1 (stereo not drawn) [Example 412] | E (E = >25-75% remaining) | ≥ 25 | ≥ 25 | F (F = >75-100% remaining)
Cn1ncc(-c2ccc3c(c2)CN(C2CCC(=O)NC2=O)C3=O)c1-c1ccc(C2CCNCC2)cc1 (stereo not drawn) [Example 413] | E (E = >25-75% remaining) | ≥ 25 | ≥ 25 | F (F = >75-100% remaining)
Cn1ncc(-c2ccc3c(c2)CN(C2CCC(=O)NC2=O)C3=O)c1-c1ccc(CN2CCNCC2)cc1 (stereo not drawn) [Example 414] | E (E = >25-75% remaining) | ≥ 25 | ≥ 25 | F (F = >75-100% remaining)

Next, values leading:

CK1α Ymin [1] | DC50 [1] [nM] | DC50 [2] [nM] | GSPT1 Ymin [2] | SMILES
D (D = >10- 25% remaining) | < 25 | ≥ 25 | F (F = >75-100% remaining) | Cn1ncc(-c2ccc3c(c2)CN(C2CCC(=O)NC2=O)C3=O)c1-c1ccc2occc2c1 (stereo not drawn) [Example 381]
E (E = >25-75% remaining) | < 25 | ≥ 25 | F (F = >75-100% remaining) | Cn1ncc(-c2ccc3c(c2)CN(C2CCC(=O)NC2=O)C3=O)c1-c1ccc2ccn(C)c2c1 (stereo not drawn) [Example 386]
D (D = >10- 25% remaining) | < 25 | ≥ 25 | F (F = >75-100% remaining) | Cn1ncc(-c2ccc3c(c2)CN(C2CCC(=O)NC2=O)C3=O)c1-c1ccc2c(ccn2C)c1 (stereo not drawn) [Example 387]
E (E = >25-75% remaining) | < 25 | ≥ 25 | F (F = >75-100% remaining) | Cn1ncc(-c2ccc3c(c2)CN(C2CCC(=O)NC2=O)C3=O)c1-c1ccc2cnn(C)c2c1 (stereo not drawn) [Example 389]
C (C = 0-10% remaining) | ≥ 25 | ≥ 25 | F (F = >75-100% remaining) | Cc1nc2ccc(-c3c(-c4ccc5c(c4)CN(C4CCC(=O)NC4=O)C5=O)cnn3C)cc2[nH]1 (stereo not drawn) [Example 391]
E (E = >25-75% remaining) | < 25 | ≥ 25 | F (F = >75-100% remaining) | Cn1ncc(-c2ccc3c(c2)CN(C2CCC(=O)NC2=O)C3=O)c1-c1ccc2scnc2c1 (stereo not drawn) [Example 392]
D (D = >10- 25% remaining) | < 25 | ≥ 25 | F (F = >75-100% remaining) | Cn1ncc(-c2ccc3c(c2)CN(C2CCC(=O)NC2=O)C3=O)c1-c1ccc2ncsc2c1 (stereo not drawn) [Example 393]
E (E = >25-75% remaining) | ≥ 25 | ≥ 25 | F (F = >75-100% remaining) | Cn1ncc(-c2ccc3c(c2)CN(C2CCC(=O)NC2=O)C3=O)c1-c1cnc2sccc2c1 (stereo not drawn) [Example 394]
D (D = >10- 25% remaining) | < 25 | ≥ 25 | F (F = >75-100% remaining) | Cn1cnc(-c2ccc3c(c2)CN(C2CCC(=O)NC2=O)C3=O)c1-c1cccc(C#N)n1 (stereo not drawn) [Example 399]
C (C = 0-10% remaining) | < 25 | ≥ 25 | E (E = >25-75% remaining) | Cn1cnc(-c2ccc3c(c2)CN(C2CCC(=O)NC2=O)C3=O)c1-c1ccc2nc[nH]c2c1 (stereo not drawn) [Example 401]
E (E = >25-75% remaining) | ≥ 25 | ≥ 25 | F (F = >75-100% remaining) | Cn1cnc(-c2ccc3c(c2)CN(C2CCC(=O)NC2=O)C3=O)c1-c1ccc(N2CCOCC2)nc1 (stereo not drawn) [Example 404]
E (E = >25-75% remaining) | < 25 | ≥ 25 | – | CN1CCN(c2cccc(-c3c(-c4ccc5c(c4)CN(C4CCC(=O)NC4=O)C5=O)ncn3C)c2)CC1 (stereo not drawn) [Example 408]
E (E = >25-75% remaining) | ≥ 25 | ≥ 25 | F (F = >75-100% remaining) | Cn1ncc(-c2ccc3c(c2)CN(C2CCC(=O)NC2=O)C3=O)c1-c1cccc(CCCCCCc2ccccc2)c1 (stereo not drawn) [Example 409]
E (E = >25-75% remaining) | < 25 | ≥ 25 | F (F = >75-100% remaining) | CCOC(=O)Cc1cccc(-c2c(-c3ccc4c(c3)CN(C3CCC(=O)NC3=O)C4=O)cnn2C)c1 (stereo not drawn) [Example 410]
E (E = >25-75% remaining) | < 25 | ≥ 25 | F (F = >75-100% remaining) | COCCCOc1ccc(-c2c(-c3ccc4c(c3)CN(C3CCC(=O)NC3=O)C4=O)cnn2C)cc1 (stereo not drawn) [Example 411]
E (E = >25-75% remaining) | < 25 | ≥ 25 | F (F = >75-100% remaining) | Cn1cc(-c2ccc3c(c2)CN(C2CCC(=O)NC2=O)C3=O)nc1C1OCCCO1 (stereo not drawn) [Example 415, 3-(5-(2-(1,3-dioxan-2-yl)-1-methyl-1H-imidazol-4-yl)-1-oxoisoindolin-2-yl) piperidine-2,6-dione]
